44 molecules from patent publication US20230014907A1, “INHIBITORS OF APOL1 AND METHODS OF USING SAME” (Vertex Pharmaceuticals Incorporated, priority 2020, published 2023) can be followed below.

Usually IC50 stands for the concentration needed to halve the response being measured.

The structures appear in SMILES notation.

The assay concerns the target T1, G1 APOL1 (Homo sapiens, UniProt O14791, I384M/S342G).
T1 construct: expressed in transfected cells
T1 sequence (O14791 28-398 S342G/I384M): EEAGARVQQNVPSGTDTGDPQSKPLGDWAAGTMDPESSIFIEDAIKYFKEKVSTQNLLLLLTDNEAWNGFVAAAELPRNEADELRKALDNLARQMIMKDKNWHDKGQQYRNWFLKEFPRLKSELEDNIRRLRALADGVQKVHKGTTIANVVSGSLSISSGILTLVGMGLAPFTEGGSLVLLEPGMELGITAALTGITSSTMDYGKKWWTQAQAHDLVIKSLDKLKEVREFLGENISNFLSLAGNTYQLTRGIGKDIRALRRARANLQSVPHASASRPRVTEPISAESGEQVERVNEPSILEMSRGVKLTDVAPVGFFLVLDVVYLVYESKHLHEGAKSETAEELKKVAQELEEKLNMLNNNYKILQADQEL
Kind of assay: Acute APOL1 Thallium Assay with Inducible Stable Clones of HEK 293 Cells. The format is cell-based. To be noted: HEK 293 inducible stable clones, G1 APOL1; read-out: Thallium Assay (IC50). From the text: Acute APOL1 Thallium Assay with Inducible Stable Clones of HEK 293 Cells
Apolipoprotein L1 (APOL1) proteins form potassium-permeable cation pores in the plasma membrane. APOL1 risk variants (G1 and G2) induce greater potassium flux than G0 in HEK293 cells. This assay exploits the permeability of thallium (Tl+) through ligand-gated potassium channels. The dye produces a bright fluorescent signal upon binding to Tl+ conducted through potassium channels. The intensity of the Tl+ signal is proportional to the number of potassium channels in the open state. Therefore, it provides a functional indication of the potassium channel activities. During the initial dye-loading step, the Tl+ indicator dye as an acetoxymethyl (AM) ester enters the cells through passive diffusion. Cytoplasm esterases cleave the AM ester and relieve its active thallium-sensitive form. The cells are then stimulated with Tl+. The increase of fluorescence in the assay represents the influx of Tl+ into the cell specifically through the potassium channel (i.e. through APOL1 pores), providing a functional measurement of potassium channel/pore activity. The Thallium assay is conducted with cells expressing G1 APOL1.
APOL1 Cell Line (HEK T-Rex Stable Inducible Cell Line) • HEK T-Rex System • Tetracycline (Tet) inducible mammalian expression system. • Stably express the Tet repressor to regulate transcription. • Expression under the full-length CMV promoter. • APOL1 stable inducible cell line Clone used: G1 DC3.25
Tissue Culture Media • Cell Culture Medium • DMEM+10% FBS+P/S+5 μg/mL blasticidin+1 μg/mL puromycin. • 500 mL DMEM+55 mL FBS+5 mL P/S+280 μL blasticidin S HCl (10 mg/mL)+56 μL puromycin (10 mg/mL). • Cell Assay Medium • DMEM with 2% FBS+penicillin/streptomycin.
Instruments and Equipment • Nuaire cell culture hood, Cat. No. 540-600 • 37° C./5% CO2 incubator link to robotic arm, Liconic: STX110 • Molecular Devices FLIPR^Tetra High throughput cellular screening system, Cat. No. FT0324, Molecular Devices • ThermoFisher MultiDrop 384, Cat. No. 5840300 • Biotek Microfill, Cat. No. ASF1000A-4145 • BioRad TC10 cell counter, Cat. No. 145-0010
Cells Scaled Up from Frozen Vials • APOL1 G1 3.25 (HEK293 T-Rex) frozen vials: 5 million cells per vial • Step 1, Day 1: Defrost frozen vial into T-225. • Step 2, Day 5: (when 85% confluent): Split one T-225 at 3×10^6 cells per flask. • Step 3, Day 8: Splits cells to set up for the assay plates as described below.
T-Rex APOL1 HEK cells are split twice per week to keep the confluence state below 85% of the culture flask surface area. Cells can be kept until passage 25. • Cell Culture Medium • DMEM high glucose+10% FBS, +P/S, +5 μg/mL blasticidin, +1 μg/mL puromycin. • 500 mL DMEM, +55 mL FBS, +5 mL P/S, +280 μL blasticidin 10 mg/mL, +56 μL Puromycin 10 mg/mL. • Assay Media • Opti-MEM reduced serum medium from Invitrogen.
Preparation of Cell Assay Plates • Culture medium is removed from the x cm^2 T-flask by aspiration. • The cell monolayer is rinsed with PBS 1× at room temperature. PBS is removed by aspiration. • Cells are trypsinized using Trypsin. • The flasks are incubated at room temperature for 2-3 minutes. • Complete DMEM medium is then added. Cell suspension is then transferred to a 50 mL Falcon polypropylene tube. • Cells are then counted using a BioRad TC10 cell counter and the required amount of cells are centrifuged at 1200 RPM for 5 minutes. Required amount is 1.3×10^6 cells/mL APOL1 T-Rex HEK cells. • The pellet is suspended in the assay medium. • Using the MultiDrop, add 20 μL to each well (corresponds to 26000 cells total per well) of a 384-well black, transparent, flat bottom Poly-D coated plate. • Tetracycline as prepared in the following section is added to the cells before plating to induce APOL1 expression. • Plates are left at room temperature for 20 to 30 minutes before incubation at 37° C. and 5% CO2. […]
Turning to `O=C(NCCc1c(-c2ccc(F)cc2)[nH]c2c(F)cc(F)cc12)C1(O)CC1` [Compound 360], the IC50 was in the range of 0.25 to 1 µM.
Turning to `CC(O)CCNC(=O)OCCc1c(-c2ccc(F)cc2)[nH]c2c(F)cc(F)cc12` (centres unmarked) [Compound 483], the IC50 was > 1 µM.
Consider `C[C@H](CO)NC(=O)NCCc1c(-c2ccc(F)cc2)[nH]c2c(F)cc(F)cc12` [Compound 282], for which the IC50 was 0.25 to 1 µM.
`O=C1N[C@H](C(=O)NCCc2c(-c3ccc(F)cc3)[nH]c3c(F)cc(F)cc23)CO1` [Compound 336]: the IC50 is > 1 µM.
`Cc1ccnn1CCC(=O)NCCc1c(-c2ccc(F)cc2)[nH]c2c(F)cc(F)cc12` [Compound 372]: the IC50 is > 1 µM.
For `NC(=O)CCC(=O)NCCc1c(-c2ccc(F)cc2)[nH]c2c(F)cc(F)cc12` [Compound 343], the IC50 is > 1 µM.
On to `O=C(NCCc1c(-c2ccc(F)cc2)[nH]c2c(F)cc(F)cc12)N[C@H](CO)C(F)(F)F` [Compound 262], for which the IC50 is < 0.25 µM.
For the molecule `O=C1NC(=O)C(CCS(=O)(=O)NCCc2c(-c3ccc(F)cc3)[nH]c3c(F)cc(F)cc23)N1` (centres unmarked) [Compound 420, N-(2-(5,7-difluoro-2-(4-fluorophenyl)-1H-indol-3-yl)ethyl)-2-(2,5-dioxoimidazolidin-4-yl)ethane-1-sulfonamide], the IC50 is > 1 µM.
In the case of `O=C(CCCc1c(-c2ccc(F)cc2)[nH]c2c(F)cc(F)cc12)NCC1CNC(=O)C1` (centres unmarked) [Compound 252], the IC50 was > 1 µM.
To `Cc1cc(F)c2[nH]c(-c3ccc(F)cc3)c(CCC(=O)N[C@H](C)CO)c2c1` [Compound 213] belongs 0.25 to 1 µM.
As for `O=C(NCCc1c(-c2ccc(F)cc2)[nH]c2c(F)cc(F)cc12)C1CC1(F)F` (centres unmarked) [Compound 404], the IC50 is 0.25 to 1 µM.
On to `CNC(=O)CC(=O)NCCc1c(-c2ccc(F)cc2)[nH]c2c(F)cc(F)cc12` [Compound 345], for which the IC50 was > 1 µM.
With `Cc1cnn(CC(=O)NCCc2c(-c3ccc(F)cc3)[nH]c3c(F)cc(F)cc23)c1` [Compound 379], the IC50 was > 1 µM.
For `O=C(NCCc1c(-c2ccc(F)cc2)[nH]c2c(F)cc(F)cc12)c1cc[nH]n1` [Compound 351], the IC50 was > 1 µM.
Consider `O=C(NCCc1c(-c2ccc(F)cc2)[nH]c2c(F)cc(F)cc12)c1nc(C(F)(F)F)cs1` [Compound 368], for which the IC50 was > 1 µM.
Turning to `O=C1CCC(C(=O)NCCc2c(-c3ccc(F)cc3)[nH]c3c(F)cc(F)cc23)CN1` (centres unmarked) [Compound 332], the concentration for half-maximal inhibition (IC50) is > 1 µM.
As for `O=C(NCC(O)CO)OCCc1c(-c2ccc(F)cc2)[nH]c2c(F)cc(F)cc12` (centres unmarked) [Compound 468], the IC50 lay within 0.25 to 1 µM.
On to `CC(C)(C)OC(=O)NC1(CC(=O)NCCc2c(-c3ccc(F)cc3)[nH]c3c(F)cc(F)cc23)CC1` [Compound 312], for which the IC50 was > 1 µM.
Then `CC(C)(CF)C(=O)NCCc1c(-c2ccc(F)cc2)[nH]c2c(F)cc(F)cc12` [Compound 405], with 0.25 to 1 µM.
For `O=C(NCCc1c(-c2ccc(F)cc2)[nH]c2c(F)cc(F)cc12)[C@H]1CC[C@H](O)CC1` [Compound 325], the IC50 is > 1 µM.
With `Cc1cc(F)c2[nH]c(-c3ccc(F)cc3)c(CCC(=O)N[C@@H](C)CO)c2c1` [Compound 222], the 50% inhibitory concentration (IC50) is > 1 µM.
Take `O=C(/C=C/c1c(-c2ccc(F)cc2)[nH]c2c(F)ccc(F)c12)N[C@H]1CCNC1=O` [Compound 520, (E)-3-[4,7-difluoro-2-(4-fluorophenyl)-1H-indol-3-yl]-N-[(3S)-2-oxopyrrolidin-3-yl]prop-2-enamide]: the IC50 is > 1 µM.
Take `O=C(Cc1nccs1)NCCc1c(-c2ccc(F)cc2)[nH]c2c(F)cc(F)cc12` [Compound 376]: the IC50 is > 1 µM.
On to `NC1(C(=O)NCCc2c(-c3ccc(F)cc3)[nH]c3c(F)cc(F)cc23)CCC1` [Compound 349], for which the IC50 was 0.25 to 1 µM.
`C[C@@H](CO)NC(=O)OCCc1c(-c2ccc(F)cc2)[nH]c2c(F)cc(F)cc12` [Compound 440]: the IC50 is < 0.25 µM.
`Cn1ccnc1CCC(=O)NCCc1c(-c2ccc(F)cc2)[nH]c2c(F)cc(F)cc12` [Compound 371]: the IC50 is > 1 µM.
Take `Cc1cnc(CNC(=O)OCCc2c(-c3ccc(F)cc3)[nH]c3c(F)cc(F)cc23)o1` [Compound 487]: the IC50 is > 1 µM.
For `Cc1cc(F)c2[nH]c(-c3ccc(F)cc3)c(CCC(=O)NC[C@H](O)CO)c2c1` [Compound 226], the half-inhibitory concentration (IC50) is > 1 µM.
Consider `Cc1cc(CNC(=O)OCCc2c(-c3ccc(F)cc3)[nH]c3c(F)cc(F)cc23)on1` [Compound 492], for which the IC50 was > 1 µM.
To `O=C(NC1CC(F)(F)C1)OCCc1c(-c2ccc(F)cc2)[nH]c2c(F)cc(F)cc12` [Compound 465] belongs 0.25 to 1 µM.
`NC(=O)[C@H](CO)NC(=O)CCc1c(-c2ccc(F)cc2)[nH]c2c(F)cc(Cl)cc12` [Compound 206]: the IC50 was > 1 µM.
Regarding `O=C1CC(C(=O)NCCc2c(-c3ccc(F)cc3)[nH]c3c(F)cc(F)cc23)CCN1` (centres unmarked) [Compound 331], the IC50 was > 1 µM.
On to `O=C1CC(C(=O)NCCc2c(-c3ccc(F)cc3)[nH]c3c(F)cc(F)cc23)C(=O)N1` (centres unmarked) [Compound 333], for which the IC50 was < 0.25 µM.
On to `Cc1cc(F)c2[nH]c(-c3ccc(F)cc3)c(CCC(=O)NC(CO)(CO)CO)c2c1` [Compound 217], for which the IC50 was > 1 µM.
To `O=C(Cc1cnccn1)NCCc1c(-c2ccc(F)cc2)[nH]c2c(F)cc(F)cc12` [Compound 381] belongs > 1 µM; to `CC(C)(CO)C(=O)NCCc1c(-c2ccc(F)cc2)[nH]c2c(F)cc(F)cc12` [Compound 341], 0.25 to 1 µM.
Regarding `CCOCCc1c(-c2ccc(F)cc2)[nH]c2c(F)cc(F)cc12` [Compound 503, 3-(2-ethoxyethyl)-5,7-difluoro-2-(4-fluorophenyl)-1H-indole], the IC50 was > 1 µM.
To `O=C(NCCc1c(-c2ccc(F)cc2)[nH]c2c(F)cc(F)cc12)c1c[nH]cn1` [Compound 353] belongs 0.25 to 1 µM; to `CC(C)(C)OC(=O)NC1(C(=O)NCCc2c(-c3ccc(F)cc3)[nH]c3c(F)cc(F)cc23)CCC1` [Compound 311], > 1 µM; to `O=C(N[C@@H](CO)C(F)F)OCCc1c(-c2ccc(F)cc2)[nH]c2c(F)cc(F)cc12` [Compound 441], < 0.25 µM.
In the case of `O=C(NCc1ncc[nH]1)OCCc1c(-c2ccc(F)cc2)[nH]c2c(F)cc(F)cc12` [Compound 484], the 50% inhibitory concentration (IC50) was > 1 µM.
Take `CC1(CO)CCN1C(=O)CCc1c(-c2ccc(F)cc2)[nH]c2c(F)cc(F)cc12` (centres unmarked) [Compound 110]: the IC50 is 0.25 to 1 µM.
Take `O=C(NC[C@@H](O)CO)OCCc1c(-c2ccc(F)cc2)[nH]c2c(F)cc(F)cc12` [Compound 476]: the IC50 is > 1 µM.
To `O=C(NCCc1c(-c2ccc(F)cc2)[nH]c2c(F)cc(F)cc12)C(O)C1CC1` (centres unmarked) [Compound 346] belongs 0.25 to 1 µM.
